Data from paper PMC3961306, “Comparison of the Cancer Gene Targeting and Biochemical Selectivities of All Targeted Kinase Inhibitors Approved for Clinical Use” (PLoS ONE, 2014).
Where two headings read alike, the source gives them in different places.

Tests used:
[1] = tested on: forty-four human cancer cell lines; experiment: Cell proliferation assay (ATPlite, 72 hours) in the 44 cell line Oncolines panel; type: cell-based; conditions: Homo sapiens
[2] = target: panel of more than 300 wild-type and mutant kinases (313 kinase panel) (Homo sapiens, UniProt Q9UM73, R1275Q); experiment: Kinase profiling in a biochemical assay panel (mobility shift assays and ELISA), %-inhibition at 1 μM; selectivity entropy; conditions: kinase ALK(R1275Q); 1 μM compound
[3] = target: panel of more than 300 wild-type and mutant kinases (313 kinase panel) (Homo sapiens, UniProt P09619); experiment: as above; conditions: kinase PDGFRβ; 1 μM
[4] = target: panel of more than 300 wild-type and mutant kinases (313 kinase panel) (Homo sapiens, UniProt P00533, T790M); experiment: as above; conditions: kinase EGFR(T790M); compound at 1 μM
[5] = target: panel of more than 300 wild-type and mutant kinases (313 kinase panel) (Homo sapiens, UniProt P22612); experiment: as above; conditions: kinase PKACγ; 1 μM
[6] = target: panel of more than 300 wild-type and mutant kinases (313 kinase panel) (Homo sapiens, UniProt P00519, E255K); experiment: as above; conditions: kinase ABL(E255K); 1 μM compound
[7] = target: panel of more than 300 wild-type and mutant kinases (313 kinase panel) (Homo sapiens, UniProt P00519); experiment: as above; conditions: kinase ABL; 1 μM compound
[8] = 4-4 cell, read-out: cell panel IC50, J82
[9] = 4-4 cell, read-out: cell panel IC50, PA-1
[10] = 4-4 cell, read-out: cell panel IC50, SJCRH30
[11] = 4-4 cell, read-out: cell panel IC50, SR
[12] = 769-P, read-out: cell panel IC50, 769-P
[13] = 786-0, read-out: cell panel IC50, 786-0
[14] = A 172, read-out: cell panel IC50, A-172
[15] = A204, read-out: cell panel IC50, A-204
[16] = A498, read-out: cell panel IC50, A-498
[17] = A549, read-out: cell panel IC50, A-549
[18] = A-375, read-out: cell panel IC50, A375
[19] = A-427, read-out: cell panel IC50, A-427
[20] = ACHN, read-out: cell panel IC50, ACHN
[21] = AN3-CA, read-out: cell panel IC50, AN3 CA
[22] = AU565, read-out: cell panel IC50, AU-565
[23] = BT-20, read-out: cell panel IC50, BT-20
[24] = BT-549, read-out: cell panel IC50, BT-549
[25] = BXPC-3, read-out: cell panel IC50, BxPC-3
[26] = C-33-A, read-out: cell panel IC50, C-33 A
[27] = CAL-27, read-out: cell panel IC50, CAL 27
[28] = CCRF-CEM, read-out: cell panel IC50, CCRF-CEM
[29] = DLD-1, read-out: cell panel IC50, DLD-1
[30] = FaDu, read-out: cell panel IC50, FaDu
[31] = HCT-15, read-out: cell panel IC50, HCT-15
[32] = HCT-116, read-out: cell panel IC50, HCT-116
[33] = Hs-578T, read-out: cell panel IC50, Hs 578T
[34] = Jurkat E6.1, read-out: cell panel IC50, Jurkat E6.1
[35] = K562, read-out: cell panel IC50, K-562
[36] = LS174T, read-out: cell panel IC50, LS 174T
[37] = LoVo, read-out: cell panel IC50, LoVo
[38] = MG-63, read-out: cell panel IC50, MG-63
[39] = MOLT-4, read-out: cell panel IC50, MOLT-4
[40] = MeWo, read-out: cell panel IC50, MeWo
[41] = NCI-H82, read-out: cell panel IC50, NCI-H82
[42] = NCI-H460, read-out: cell panel IC50, NCI-H460
[43] = OVCAR-3, read-out: cell panel IC50, OVCAR-3
[44] = RPMI-7951, read-out: cell panel IC50, RPMI-7951
[45] = SHP77, read-out: cell panel IC50, SHP-77
[46] = SK-N-AS, read-out: cell panel IC50, SK-N-AS
[47] = SW48, read-out: cell panel IC50, SW48
[48] = SW480, read-out: cell panel IC50, SW480
[49] = SW-620, read-out: cell panel IC50, SW620
[50] = U2OS, read-out: cell panel IC50, U-2 OS
[51] = U-87 MG, 72 h, read-out: IC50 in cell proliferation assay (table S5 cellpanel data)

panel of more than 300 wild-type and mutant kinases (313 kinase panel) (Homo sapiens, UniProt P00519, E255K), sequence (P00519 whole entry E255K): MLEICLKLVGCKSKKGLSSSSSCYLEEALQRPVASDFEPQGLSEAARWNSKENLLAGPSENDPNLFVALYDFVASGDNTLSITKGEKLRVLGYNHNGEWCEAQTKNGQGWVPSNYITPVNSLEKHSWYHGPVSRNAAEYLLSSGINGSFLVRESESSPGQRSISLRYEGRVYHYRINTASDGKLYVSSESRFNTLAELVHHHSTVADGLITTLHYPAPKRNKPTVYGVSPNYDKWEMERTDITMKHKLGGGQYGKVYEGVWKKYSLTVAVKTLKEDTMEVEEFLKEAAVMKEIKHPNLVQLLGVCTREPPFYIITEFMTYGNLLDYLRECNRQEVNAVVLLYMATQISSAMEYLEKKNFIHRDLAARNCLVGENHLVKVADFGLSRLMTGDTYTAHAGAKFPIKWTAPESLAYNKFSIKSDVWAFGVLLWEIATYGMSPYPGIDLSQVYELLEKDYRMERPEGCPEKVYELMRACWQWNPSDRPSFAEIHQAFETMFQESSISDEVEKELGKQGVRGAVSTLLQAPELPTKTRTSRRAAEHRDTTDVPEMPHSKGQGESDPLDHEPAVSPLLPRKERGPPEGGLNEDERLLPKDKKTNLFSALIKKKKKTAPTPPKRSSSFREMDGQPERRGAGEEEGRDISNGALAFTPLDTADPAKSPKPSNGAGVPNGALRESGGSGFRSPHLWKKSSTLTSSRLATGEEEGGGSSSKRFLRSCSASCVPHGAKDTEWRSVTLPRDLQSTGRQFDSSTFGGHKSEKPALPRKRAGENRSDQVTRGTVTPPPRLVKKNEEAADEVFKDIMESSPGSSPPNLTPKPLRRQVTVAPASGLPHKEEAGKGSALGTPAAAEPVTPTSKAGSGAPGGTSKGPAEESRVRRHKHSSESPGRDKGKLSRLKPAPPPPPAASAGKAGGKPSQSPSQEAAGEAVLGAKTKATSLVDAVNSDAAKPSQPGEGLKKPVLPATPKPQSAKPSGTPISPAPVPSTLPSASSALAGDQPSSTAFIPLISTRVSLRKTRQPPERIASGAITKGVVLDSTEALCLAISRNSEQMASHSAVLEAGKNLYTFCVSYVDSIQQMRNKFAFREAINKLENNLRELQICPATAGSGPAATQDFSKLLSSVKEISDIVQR
panel of more than 300 wild-type and mutant kinases (313 kinase panel) (Homo sapiens, UniProt P00533, T790M), sequence (P00533 25-1210 T790M): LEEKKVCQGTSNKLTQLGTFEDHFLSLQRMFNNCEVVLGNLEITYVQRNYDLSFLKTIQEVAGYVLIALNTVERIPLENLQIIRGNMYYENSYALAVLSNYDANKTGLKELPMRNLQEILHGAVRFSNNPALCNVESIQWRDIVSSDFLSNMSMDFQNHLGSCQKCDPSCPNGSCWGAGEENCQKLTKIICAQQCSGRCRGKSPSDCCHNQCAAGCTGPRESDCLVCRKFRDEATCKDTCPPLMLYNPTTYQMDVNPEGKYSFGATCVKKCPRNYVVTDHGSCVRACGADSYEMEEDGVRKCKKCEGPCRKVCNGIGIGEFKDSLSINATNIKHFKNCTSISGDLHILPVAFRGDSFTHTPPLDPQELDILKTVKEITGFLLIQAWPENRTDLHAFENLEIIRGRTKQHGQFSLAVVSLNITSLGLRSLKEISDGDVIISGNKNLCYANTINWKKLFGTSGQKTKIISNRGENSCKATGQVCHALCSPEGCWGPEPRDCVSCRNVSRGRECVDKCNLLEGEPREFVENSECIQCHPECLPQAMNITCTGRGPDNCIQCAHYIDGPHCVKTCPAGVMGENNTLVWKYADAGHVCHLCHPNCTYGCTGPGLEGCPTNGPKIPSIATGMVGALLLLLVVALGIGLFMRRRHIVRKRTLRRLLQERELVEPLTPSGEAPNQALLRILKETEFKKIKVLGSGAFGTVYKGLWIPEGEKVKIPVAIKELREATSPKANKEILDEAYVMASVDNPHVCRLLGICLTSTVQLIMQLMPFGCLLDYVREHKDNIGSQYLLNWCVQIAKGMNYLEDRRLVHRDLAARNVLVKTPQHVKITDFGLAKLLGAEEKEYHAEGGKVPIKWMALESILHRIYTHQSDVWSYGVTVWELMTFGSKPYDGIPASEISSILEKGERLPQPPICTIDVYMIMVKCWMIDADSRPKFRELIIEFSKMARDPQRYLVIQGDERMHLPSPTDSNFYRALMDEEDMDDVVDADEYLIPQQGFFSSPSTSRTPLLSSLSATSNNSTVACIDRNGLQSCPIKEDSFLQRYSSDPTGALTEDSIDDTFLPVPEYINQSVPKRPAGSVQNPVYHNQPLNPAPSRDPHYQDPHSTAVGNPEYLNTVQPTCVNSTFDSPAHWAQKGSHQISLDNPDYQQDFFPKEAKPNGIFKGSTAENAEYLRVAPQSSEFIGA
panel of more than 300 wild-type and mutant kinases (313 kinase panel) (Homo sapiens, UniProt P00519), sequence (P00519 whole entry, change not shown): as the sequence (P00519 whole entry E255K) above, with K255E counted along it
panel of more than 300 wild-type and mutant kinases (313 kinase panel) (Homo sapiens, UniProt Q9UM73, R1275Q), sequence (Q9UM73 19-1620 R1275Q): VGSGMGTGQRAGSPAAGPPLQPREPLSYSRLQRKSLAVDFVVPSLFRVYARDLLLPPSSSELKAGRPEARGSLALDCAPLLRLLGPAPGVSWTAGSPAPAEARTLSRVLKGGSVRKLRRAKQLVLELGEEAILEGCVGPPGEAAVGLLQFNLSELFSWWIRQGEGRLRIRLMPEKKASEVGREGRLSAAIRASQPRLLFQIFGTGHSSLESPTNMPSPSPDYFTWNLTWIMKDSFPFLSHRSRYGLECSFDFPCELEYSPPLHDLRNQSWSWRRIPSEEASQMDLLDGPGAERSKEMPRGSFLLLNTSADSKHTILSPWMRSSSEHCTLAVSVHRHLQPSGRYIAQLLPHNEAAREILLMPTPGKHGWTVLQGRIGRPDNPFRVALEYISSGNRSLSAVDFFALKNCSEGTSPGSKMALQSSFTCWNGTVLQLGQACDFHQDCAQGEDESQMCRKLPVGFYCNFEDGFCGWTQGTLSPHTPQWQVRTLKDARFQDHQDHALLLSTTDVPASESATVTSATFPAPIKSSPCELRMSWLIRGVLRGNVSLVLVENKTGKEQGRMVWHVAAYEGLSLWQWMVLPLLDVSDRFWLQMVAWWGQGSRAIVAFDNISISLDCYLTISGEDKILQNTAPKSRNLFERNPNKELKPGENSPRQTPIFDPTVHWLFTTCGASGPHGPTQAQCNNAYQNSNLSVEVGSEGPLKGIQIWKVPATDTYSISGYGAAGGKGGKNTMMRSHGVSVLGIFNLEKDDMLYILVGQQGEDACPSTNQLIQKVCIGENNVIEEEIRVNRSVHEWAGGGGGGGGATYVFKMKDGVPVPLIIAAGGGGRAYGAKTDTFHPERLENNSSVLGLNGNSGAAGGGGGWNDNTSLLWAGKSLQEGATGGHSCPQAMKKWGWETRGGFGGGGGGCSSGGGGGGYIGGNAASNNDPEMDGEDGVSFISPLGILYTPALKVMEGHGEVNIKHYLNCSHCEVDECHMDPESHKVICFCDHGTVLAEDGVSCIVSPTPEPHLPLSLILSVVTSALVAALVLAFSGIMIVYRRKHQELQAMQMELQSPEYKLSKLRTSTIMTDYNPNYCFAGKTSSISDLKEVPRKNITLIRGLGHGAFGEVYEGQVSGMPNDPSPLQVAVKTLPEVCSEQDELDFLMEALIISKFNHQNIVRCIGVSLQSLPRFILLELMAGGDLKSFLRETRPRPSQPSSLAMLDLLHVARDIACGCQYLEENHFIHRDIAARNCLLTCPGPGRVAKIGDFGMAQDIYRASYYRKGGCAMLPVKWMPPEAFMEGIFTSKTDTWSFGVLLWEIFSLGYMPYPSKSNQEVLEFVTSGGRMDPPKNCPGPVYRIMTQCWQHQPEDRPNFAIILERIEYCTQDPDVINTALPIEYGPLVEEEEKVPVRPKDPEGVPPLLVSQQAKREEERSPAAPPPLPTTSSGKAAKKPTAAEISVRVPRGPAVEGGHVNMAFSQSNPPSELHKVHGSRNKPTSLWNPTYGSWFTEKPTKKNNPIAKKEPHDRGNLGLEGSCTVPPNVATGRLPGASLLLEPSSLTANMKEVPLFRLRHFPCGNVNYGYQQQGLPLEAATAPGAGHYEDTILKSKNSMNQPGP

COc1cc(Nc2c(C#N)cnc3cc(OCCCN4CCN(C)CC4)c(OC)cc23)c(Cl)cc1Cl [bosutinib]
IC50 [1, 8]: 4.47 µM
IC50 [1, 9]: 1.26 µM
IC50 [1, 10]: 4.39 µM
IC50 [1, 11]: 0.983 µM
IC50 [1, 12]: 1.24 µM
IC50 [1, 13]: 2.2 µM
IC50 [1, 14]: 3.69 µM
IC50 [1, 15]: 5.69 µM
IC50 [1, 16]: 1.51 µM
IC50 [1, 17]: 2.38 µM
IC50 [1, 18]: 2 µM
IC50 [1, 19]: 2.32 µM
IC50 [1, 20]: 0.808 µM
IC50 [1, 21]: 8.02 µM
IC50 [1, 22]: 4.03 µM
IC50 [1, 23]: 9 µM
IC50 [1, 24]: 4.94 µM
IC50 [1, 25]: 2.74 µM
IC50 [1, 26]: 0.108 µM
IC50 [1, 27]: 1.69 µM
IC50 [1, 28]: 3.55 µM
IC50 [1, 29]: 2.25 µM
IC50 [1, 30]: 1.93 µM
IC50 [1, 31]: 2.05 µM
IC50 [1, 32]: 2.9 µM
IC50 [1, 33]: 3.63 µM
IC50 [1, 34]: 0.466 µM
IC50 [1, 35]: 0.014 µM
IC50 [1, 36]: 1.18 µM
IC50 [1, 37]: 0.811 µM
IC50 [1, 38]: 4.21 µM
IC50 [1, 39]: 1.29 µM
IC50 [1, 40]: 5.6 µM
IC50 [1, 41]: 3.5 µM
IC50 [1, 42]: 3.72 µM
IC50 [1, 43]: 3.03 µM
IC50 [1, 44]: 3.23 µM
IC50 [1, 45]: 11.5 µM
IC50 [1, 46]: 0.923 µM
IC50 [1, 47]: 11.7 µM
IC50 [1, 48]: 10.5 µM
IC50 [1, 49]: 10.6 µM
IC50 [1, 50]: 2.62 µM
IC50 [1, 51]: 6.95 µM
%-inhibition, ALK(R1275Q) [2]: 61%
%-inhibition of PDGFRβ [3]: 95%
%-inhibition of EGFR(T790M) [4]: 87%
%-inhibition of PKACγ [5]: 53%

CS(=O)(=O)CCNCc1ccc(-c2ccc3ncnc(Nc4ccc(OCc5cccc(F)c5)c(Cl)c4)c3c2)o1 [lapatinib]
IC50 [1, 8]: 15.5 µM
IC50 [1, 9]: 12.4 µM
IC50 [1, 10]: 12.3 µM
IC50 [1, 11]: 7.6 µM
IC50 [1, 12]: 8.8 µM
IC50 [1, 13]: 11.5 µM
IC50 [1, 14]: 13.8 µM
IC50 [1, 15]: 10.6 µM
IC50 [1, 16]: 9.97 µM
IC50 [1, 17]: 15.6 µM
IC50 [1, 18]: 14.9 µM
IC50 [1, 19]: 12.7 µM
IC50 [1, 20]: 5.79 µM
IC50 [1, 21]: 12 µM
IC50 [1, 22]: 0.137 µM
IC50 [1, 23]: 17.3 µM
IC50 [1, 24]: 16.7 µM
IC50 [1, 25]: 6.59 µM
IC50 [1, 26]: 0.446 µM
IC50 [1, 27]: 2.56 µM
IC50 [1, 28]: 10.1 µM
IC50 [1, 29]: 12.9 µM
IC50 [1, 30]: 0.902 µM
IC50 [1, 31]: 8.92 µM
IC50 [1, 32]: 13.8 µM
IC50 [1, 33]: 14.6 µM
IC50 [1, 34]: 7.05 µM
IC50 [1, 35]: 14.2 µM
IC50 [1, 36]: 7.07 µM
IC50 [1, 37]: 9.08 µM
IC50 [1, 38]: 12.3 µM
IC50 [1, 39]: 8.79 µM
IC50 [1, 40]: 14.5 µM
IC50 [1, 41]: 11.7 µM
IC50 [1, 42]: 16.2 µM
IC50 [1, 43]: > 31.6 µM
IC50 [1, 44]: 13.7 µM
IC50 [1, 45]: 14.1 µM
IC50 [1, 46]: 12.7 µM
IC50 [1, 47]: 22.8 µM
IC50 [1, 48]: 13.2 µM
IC50 [1, 49]: 21.1 µM
IC50 [1, 50]: 12.9 µM
IC50 [1, 51]: 10.5 µM
%-inhibition, ABL(E255K) [6]: -4.67%
%-inhibition of PDGFRβ [3]: 2.84%
%-inhibition, ABL [7]: 17%
